Columns and labels:
Type in all cases: in vivo
Setaria faberi (SETFA) [1] = assay: Pre-emergence herbicide test, glasshouse, percentage damage; conditions: rate 1000 g/ha, evaluated after 13 days
Outline: (§1)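 Pot-grown plants were sprayed at 500 g/ha unless otherwise stated, in acetone/water (50:50) with 0.5% Tween 20. Pre-emergence spraying was 1 day after sowing and post-emergence after 8 days, in a glasshouse at 24/16° C, 14 h light, 65% humidity. Percentage damage was scored 13 days later on a 1–5 scale (5=81-100%).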

Solanum nigrum (SOLNI) [2] = assay: as above; conditions: rate 1000 g/ha, evaluated after 13 days
Outline: as §1

Lolium perenne (LOLPE) [3] = assay: as above; conditions: rate 1000 g/ha, evaluated after 13 days
Outline: as §1

[4] = system: Ipomoea hederacea (IPOHE); assay: as above; conditions: rate 1000 g/ha, evaluated after 13 days
Outline: as §1

[5] = system: Amaranthus retoflexus (AMARE); assay: as above; conditions: rate 1000 g/ha, evaluated after 13 days
Outline: as §1

[6] = system: Echinochloa crus-galli (ECHCG); assay: as above; conditions: rate 1000 g/ha, evaluated after 13 days
Outline: as §1

Setaria faberi (SETFA) [7] = assay: Post-emergence herbicide test, glasshouse, percentage damage; conditions: 1000 g/ha, evaluated after 13 days
Outline: as §1

Solanum nigrum (SOLNI) [8] = assay: as above; conditions: 1000 g/ha, evaluated after 13 days
Outline: as §1

Lolium perenne (LOLPE) [9] = assay: as above; conditions: 1000 g/ha, evaluated after 13 days
Outline: as §1

[10] = system: Ipomoea hederacea (IPOHE); assay: as above; conditions: 1000 g/ha, evaluated after 13 days
Outline: as §1

[11] = system: Amaranthus retoflexus (AMARE); assay: as above; conditions: 1000 g/ha, evaluated after 13 days
Outline: as §1

[12] = system: Echinochloa crus-galli (ECHCG); assay: as above; conditions: 1000 g/ha, evaluated after 13 days
Outline: as §1

| Compound | Pre-emergence Test SETFA percentage damage (five point scale) (Setaria faberi (SETFA) [1]) | Pre-emergence Test SOLNI percentage damage (five point scale) (Solanum nigrum (SOLNI) [2]) | Pre-emergence Test LOLPE percentage damage (five point scale) (Lolium perenne (LOLPE) [3]) | Pre-emergence Test IPOHE percentage damage (five point scale) [4] | Pre-emergence Test AMARE percentage damage (five point scale) [5] | Pre-emergence Test ECHCG percentage damage (five point scale) [6] | percentage damage caused to the plant, SETFA (Setaria faberi (SETFA) [7]) | percentage damage caused to the plant, SOLNI (Solanum nigrum (SOLNI) [8]) | percentage damage caused to the plant, LOLPE (Lolium perenne (LOLPE) [9]) | percentage damage caused to the plant, IPOHE [10] | percentage damage caused to the plant, AMARE [11] | percentage damage caused to the plant, ECHCG [12] |
| --- | --- | --- | --- | --- | --- | --- | --- | --- | --- | --- | --- | --- |
| N#Cc1cccc(Oc2ccc(Cl)cn2)c1-n1cc(C(F)(F)F)cn1 [Compound A32] | 5 (5=81-100%) | 5 (5=81-100%) | 4 (4=61-80%) | 5 (5=81-100%) | 5 (5=81-100%) | 5 (5=81-100%) | 5 (5=81-100%) | 5 (5=81-100%) | 5 (5=81-100%) | 5 (5=81-100%) | 5 (5=81-100%) | 5 (5=81-100%) |
| N#Cc1cccc(Oc2ncc(Cl)cc2F)c1-n1cc(C(F)(F)F)cn1 [Compound A33, 3-[(5-chloro-3-fluoro-2-pyridyl)oxy]-2-[4-(trifluoromethyl)pyrazol-1-yl]benzonitrile] | 5 (5=81-100%) | 5 (5=81-100%) | 4 (4=61-80%) | 2 (2=21-40%) | 5 (5=81-100%) | 5 (5=81-100%) | 5 (5=81-100%) | 5 (5=81-100%) | 5 (5=81-100%) | 5 (5=81-100%) | 5 (5=81-100%) | 5 (5=81-100%) |
| N#Cc1cccc(Oc2ncc(F)cc2F)c1-n1cc(C(F)(F)F)cn1 [Compound A34] | 5 (5=81-100%) | 5 (5=81-100%) | 5 (5=81-100%) | 5 (5=81-100%) | 5 (5=81-100%) | 5 (5=81-100%) | 5 (5=81-100%) | 5 (5=81-100%) | 5 (5=81-100%) | 5 (5=81-100%) | 5 (5=81-100%) | 5 (5=81-100%) |
| Fc1cc(Cl)cnc1Oc1cccc(F)c1-c1ncc(C(F)F)o1 [Compound A35] | 5 (5=81-100%) | 5 (5=81-100%) | 1 (1=0-20%) | 1 (1=0-20%) | 3 (3=41-60%) | 5 (5=81-100%) | 4 (4=61-80%) | 5 (5=81-100%) | 1 (1=0-20%) | 2 (2=21-40%) | 5 (5=81-100%) | 1 (1=0-20%) |
| COc1cccc(Oc2ncc(Cl)cc2F)c1-n1cc(C(F)(F)F)cn1 [Compound A36, 5-chloro-3-fluoro-2-[3-methoxy-2-[4-(trifluoromethyl)pyrazol-1-yl]phenoxy]pyridine] | 5 (5=81-100%) | 5 (5=81-100%) | 3 (3=41-60%) | 5 (5=81-100%) | 5 (5=81-100%) | 5 (5=81-100%) | 5 (5=81-100%) | 5 (5=81-100%) | 4 (4=61-80%) | 2 (2=21-40%) | 5 (5=81-100%) | 4 (4=61-80%) |

From patent publication US12227495B2, “Herbicidal compounds” (SYNGENTA CROP PROTECTION AG, priority 2018, dated 2025)
